The target of one test is MC4R (Homo sapiens, UniProt P32245). To be noted: cited from earlier work; for Selectivity (over MC3): MC4R over MC3; for pKi: read-out: Affinity for MC4R (Ki).
In test [1] the test system is adult neural stem cells. The test is described as follows: ATP assay (intracellular ATP, cell number) in suspension cultures. It is filed as cell-based, mice. To be noted: for ATP levels: 1-100 nM, 3 days, suspension cultures, vs control. As to the method: (§1) The anterior lateral wall of the lateral ventricle wall (LVW) of 5 week old mice was enzymatically dissociated at 37° C. for 20 min in 0.8 mg/mL hyaluronidase and 0.5 mg/mL trypsin in DMEM containing 4.5 mg/mL glucose and 80 units/mL DNase. The cells were diluted in 5 mL of DMEM/F12 medium (containing B27 supplement, […] HEPES Ph 7.4, 100 units/mL penicillin, and 100 micrograms/mL streptomycin). After passing through a 70 micron strainer, the cells were pelleted at 240×g for 5 minutes, washed and recentrifuged. The supernatant was subsequently removed and the cells resuspended in medium supplemented with 20 nanogram/mL EGF, plated out in culture dishes and incubated at 37° C. Neurosphere cultures were ready to be split approximately 7 days after plating.
To split the neurosphere cultures, neurospheres were collected by centrifugation at 240×g for 5 minutes. The supernatant was discarded and the neurospheres were resuspended in 0.5 mL Trypsin/EDTA in HBSS (1×) and incubated at 37° C. for 2 minutes. During this period, the neurospheres were triturated gently to aid dissociation. Following a further 2 min incubation at 37° C. and trituration, 2 volumes of DMEM-F12+B27 medium were added. The cells were pelleted at 220×g for 4 min and resuspended in DMEM/F12+B27-medium containing 10 ng/mL EGF and 5 ng/mL bFGF. Subsequently the cultures were plated out and incubated at 37° C.
Cells were harvested split as in example 1, except for omission of the growth factors in the media, and seeded as suspension cells, at a density of 10,000 cells/well on 96-well plates in DMEM/F12 supplemented with 1, 10 or 100 nM MC4R antagonist or without (control cells). Alternatively, adherent cells were seeded at a density of 30,000 cells/well on poly-D-lysine-coated 96-well plates in DMEM/F12 supplemented with 1% fetal calf serum (FCS). […]
The following experiment was performed in quadruplicate. […] Intracellular ATP was measured using a Cell Viability kit SL according to the manufacturer's instructions (#188-441, BioThema, Sweden). […]

Test [2] concerns adult neural stem cells. Briefly: BrdU incorporation ELISA in adherent cultures. Type of test: cell-based, mice. To be noted: 1-100 nM, 3 days, vs control. As to the method: as §1
To split the neurosphere cultures, neurospheres were collected by centrifugation at 240×g for 5 minutes. The supernatant was discarded and the neurospheres were resuspended in 0.5 mL Trypsin/EDTA in HBSS (1×) and incubated at 37° C. for 2 minutes. During this period, the neurospheres were triturated gently to aid dissociation. Following a further 2 min incubation at 37° C. and trituration, 2 volumes of DMEM-F12+B27 medium were added. […]
DNA synthesis is commonly used to measure cell proliferation. […] After incorporation if the thymidine analogue into DNA, BrdU was detected by immunoassay. […]
In general terms: Uptake of a labelled nucleoside into DNA is a usual measure of proliferation.

Test [3] is described as follows: Body weight during i.c.v. infusion (Example 4). Type of test: in vivo, rats. As to the method: BrdU was administered together with HS014 i.c.v.
For test [4] the following is noted: i.c.v. 2×1 nanomoles daily for 6 days or 0.16 nanomoles per hour for 2 weeks; cited from earlier work.
The subject of test [5] is 6-OHDA-lesioned rat model of Parkinson's disease. The test is described as follows: Amphetamine-induced rotation in the 6-OHDA-lesioned rat model of Parkinson's disease (Example 5). It is filed as in vivo. To be noted: 62.5 ng/day i.c.v. for 2 weeks. An excerpt: In this study, the neurorestorative action of HS014 (from Sigma Aldrich) was investigated in the 6-hydroxydopamine (6-OHDA)-lesioned rat model of Parkinson's disease where the animals have a partial, unilateral loss of dopaminergic neurons. The lesion is induced by a single injection of 6-OHDA in the median forebrain bundle (see below). Upon amphetamine stimulation, the lesioned animals will display ipsiversive rotational behavior due to the imbalance in dopamine release resulting from the unilateral loss of dopaminergic cells. This allows the functional effects of a compound tested in this model to be quantified by counting the number of amphetamine-induced rotations.
Male Sprague-Dawley rats weighing 280-320 g were housed in a temperature-controlled room under a 12 h light/dark cycle with free access to food and water. Thirty minutes prior to surgery, animals were injected intraperitoneally with pargyline (5 mg/kg) and desipramine (25 mg/kg). Rats were then placed in a stereotactic frame under general anaesthesia (Halothane). A small bur-hole was made in the right side of the skull. Each animal was given a unilateral injection of 4 μg, 6-OHDA (in 2 μl sterile water with 0.1% ascorbic acid) into the right medial forebrain bundle at co-ordinates −2.8 mm from bregma, 2 mm lateral to the midline, and 8.6 mm below skull according to the atlas of Paxinos and Watson. The 6-OHDA injection was made over a 5 min period using a 5 μl Hamilton syringe. The rats were allowed to recover for 5 weeks following the lesion. The animals were then implanted with an Alzet minipump attached to a cannula to allow infusion of HS014 or vehicle into the right lateral ventricle over a period of 2 weeks. The Alzet minipump was removed […].
24 rats were divided into 2 groups, individual rats being randomly assigned to a treatment group based on their baseline rotation (5 weeks post lesion) so they were equally distributed. […] Rotational activity was measured by counting the total number of turns for the duration of the experiment. […] Body weight was also recorded weekly. […]

Test [6] relates to neuronal stem/progenitor cell proliferation in the SVZ. To be noted: i.c.v. infusion of 6.25, 62.5 or 625 ng/day for two weeks.
Description: To further characterize MC4R antagonist-stimulation of neogenesis, in vivo studies were performed. The effect of HS014 on proliferation (BrdU incorporation) was tested over a two week period at doses ranging from 6.25 to 625 ng/24h. Administration was done by i.c.v. infusion into the right lateral ventricle. BrdU was administered together with HS014 i.c.v. The animal's body weight was measured throughout the experiment. After termination of the experiment, BrdU expression was detected by immunohistochemistry on brain sections from the subependymal layer of the lateral ventricle wall as well as on the sub granular cells in dentate gyrus. […]
As an additional marker for understanding whether a dose that is effective in eliciting a response controlled by the central nervous system, weight gain was also monitored throughout the experiment by weighing the animals. […]
At the end of the experiment the rats were anaesthetized with sodium pentobarbital (120 mg, i.p.) and transcardially perfused with 90 ml of 0.9% NaCl and 4% PFA solution. […] As detection, Vectastain Elite (Vector) 1/100 was used and finally, developing was done by Sigma fast DAB tablet monitored in microscope, sections were then counterstained by HTX followed by dehydration and clearing.
Quantification was performed using a Nikon eclipse E6000 microscope at a magnification of 40×. […]
Test [7] deals with melanocortin 4 receptor (MC4R), murine (Mus musculus) (UniProt P56450). Briefly: cell-based or functional assay.
melanocortin 4 receptor (MC4R), murine (Mus musculus), sequence (P56450 whole entry): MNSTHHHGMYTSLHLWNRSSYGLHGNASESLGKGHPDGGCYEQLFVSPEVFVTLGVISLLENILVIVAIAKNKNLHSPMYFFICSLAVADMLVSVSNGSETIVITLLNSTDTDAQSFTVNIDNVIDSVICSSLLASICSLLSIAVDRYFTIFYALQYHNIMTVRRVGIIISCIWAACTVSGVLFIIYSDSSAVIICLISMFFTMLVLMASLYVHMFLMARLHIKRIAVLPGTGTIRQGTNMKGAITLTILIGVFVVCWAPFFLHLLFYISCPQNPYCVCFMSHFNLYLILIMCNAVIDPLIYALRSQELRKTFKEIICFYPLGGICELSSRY
The target in a further test is MC3 (Homo sapiens, UniProt P41968). To be noted: printed in the column Selectivity (over MC3); cited from earlier work.
MC3, sequence (P41968 whole entry, species assumed): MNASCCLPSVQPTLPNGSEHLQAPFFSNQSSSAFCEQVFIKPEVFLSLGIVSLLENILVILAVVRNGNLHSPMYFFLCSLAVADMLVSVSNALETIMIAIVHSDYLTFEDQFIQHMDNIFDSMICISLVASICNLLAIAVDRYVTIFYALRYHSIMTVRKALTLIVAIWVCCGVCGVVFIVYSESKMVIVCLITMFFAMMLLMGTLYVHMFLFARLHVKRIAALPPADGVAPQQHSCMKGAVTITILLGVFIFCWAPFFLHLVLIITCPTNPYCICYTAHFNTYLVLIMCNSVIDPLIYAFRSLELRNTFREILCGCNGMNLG

pKi: −log10 of the molar value. Bridges are numbered along the chain shown (N, C = ends). [ ]: non-standard residue; d: D form. d2Nal = N[C@H](Cc1ccc2ccccc2c1)C(=O)O; dPhe(diCl) = diCl-D-Phe

MC4R, sequence (P32245 whole entry, species assumed): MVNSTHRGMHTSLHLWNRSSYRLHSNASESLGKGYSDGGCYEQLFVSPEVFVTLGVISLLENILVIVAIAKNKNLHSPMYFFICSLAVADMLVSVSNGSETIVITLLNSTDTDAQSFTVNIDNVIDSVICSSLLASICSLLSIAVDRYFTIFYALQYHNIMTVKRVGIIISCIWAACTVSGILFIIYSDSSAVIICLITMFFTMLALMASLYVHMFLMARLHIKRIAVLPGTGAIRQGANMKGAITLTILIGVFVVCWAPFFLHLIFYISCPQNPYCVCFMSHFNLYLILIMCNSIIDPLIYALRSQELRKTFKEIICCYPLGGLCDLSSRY

One may read the pKi as −log10 of the Ki, conventionally taken in molar units. Regarding “[acetyl group]-Cys-Glu-His-(diCl-D-Phe)-Arg-Trp-Gly-Cys-Pro-Pro-Lys-Asp-[amide group] (Ac-CEH[dPhe(diCl)]RWGCPPKD-NH2; not fully specified (bridges); also: cyclic, bridge not given here) [HS028]”, in the test with MC4R, the “Selectivity (over MC3)” value was 80-fold and the pKi is 9.02. Further, the ATP levels result in the test with adult neural stem cells [1] is recorded as “increase ATP levels”.
For “[acetyl group]-Cys-Glu-His-(D-2-Nal)-Arg-Trp-Gly-Cys-Pro-Pro-Lys-Asp-[amide group] (Ac-CEH[d2Nal]RWGCPPKD-NH2; disulfide 1-8 (inferred)) [HS014]”, in the test with MC4R, the “Selectivity (over MC3)” value is 10-fold and the pKi is 8.49. In addition, the BrdU incorporation entry in the test on adult neural stem cells [2] was “increase BrdU incorporation”. In test [3] (i.c.v. infusion for two weeks), the “dose at which weight gain was first significant” value is on record as 62.5 ng/day and the “dose with greatest weight gain” value was 625 ng/day. Further, the weight gain result in test [3] (i.c.v. infusion of 6.25, 62.5 or 625 ng/day for two weeks) is “increased in a dose-dependent manner”. In addition, the “food intake and body weight” value in test [4] is “considerable increase in food intake and body weight”. Also, the “persistence of improvement after administration was stopped” value in test [5] is “maintained for at least two weeks”. Moreover, the “rotation at week 4 compared to pre-pump levels” value in test [5] (then 2 weeks without treatment) is “approximately 30%”. Moreover, the “net ipsiversive rotations at weeks 1-4 compared to the pre-pump response” value in test [5] (all P<0.01) is “significant reduction”. Besides, the “dose with greatest effect on neuronal stem/progenitor cell proliferation (BrdU counts, SVZ)” value in [6] was 62.5 ng/day. For the same compound, the ATP levels entry in the test with adult neural stem cells [1] is on record as “increase ATP levels”.
Agouti (87-132) (peptide) returned a proliferation in the ATP-assay, at 400 nM (times control) in test [7] of 1.6.
With HS024, at MC4R, the “Selectivity (over MC3)” value is given as 20-fold and the pKi was 9.54.
For the compound `NCCC(=O)N[C@H](Cc1ccc(Cl)cc1Cl)C(=O)N1CCN(c2ccccc2CNCCc2cccs2)CC1` [Compound10, 4-{(2R)-[3-Aminopropionylamido]-3-(2,4-dichlorophenyl)propionyl}-1-{2-[(2-thienyl)ethylaminomethyl]phenyl}piperazine], on MC3, the “potency in cAMP assay” value was “No potency i cAMP”.
Take “Agouti (87-132): endogenous MC4R antagonist peptide analogue (TPLSAPCVATRNSCKPPAPACCDPCASCQCRFFRSACSCRVLSLNC; UniProt P42127 87-132, looked up, fragment)”: the “increase in proliferation (ATP-assay)” value with adult neural stem cells [1] (at 400 nM) was 1.6 times control.

The record behind these values is patent publication US20100129319A1, “TREATMENT OF DISEASE OR INJURY OF THE NERVOUS SYSTEM USING AGENTS THAT DECREASE THE ACTIVITY OF THE MELANOCORTIN 4 RECEPTOR” (priority 2006, published 2010).
